Assay results from patent publication US20170298347A1, “NOVEL FUSION-CIRCULAR RNAs AND USES THEREOF” (BETH ISRAEL DEACONESS MEDICAL CENTER, priority 2016, published 2017).

Test system: K562 cells
Experiment: Apoptosis (AnnexinV/7-AAD) in K562 cells treated with Ara-C or ATO
Format: cell-based, human
Conditions: K562 transduced with empty vector; ATO 1 μM, Ara-C 0.5 μM
Protocol: K562 cells (Lozzio and Lozzio, 1979) were then transduced with viral vectors expressing f-circM9. Cells transduced only with an empty vector were used as control. F-circM9-expressing cells were sorted for a pure population and were subsequently subjected to treatment with Ara-C and ATO. […] On the contrary, clear differences were noticed in treated cells.
THP-1, K562, U937, HL-60, Kasumi and NB4 cell lines were maintained in RPMI medium supplemented with 10% FBS. MEFs Arf−/− cells were grown in DMEM supplemented with 10% FBS. Primary leukemic cells transduced with MLL/AF9 cDNA were maintained in StemSpan medium (Stem Cell Technologies) supplemented with IL6 (15 ng/ml), IL3 (15 ng/ml) TPO (50 ng/ml) and SCF (50 ng/ml) during the transduction with retroviral vectors. Cells were grown at 37° C. in a 5% CO2 humidified incubator. Fractionation of the cells to separate nucleus and cytoplasm has been performed using PARIS-kit (Ambion) following the manufacturer's instructions. The efficiency of the separation of the 2 fractions was assessed by Western blot analysis of β-actin (cytosol) and […] (nucleus). […]
Apoptotic cells were analyzed with 7AAD and Annexin-V-APC. Cells were stained for 15 minutes with both markers and then analyzed using LRSII (BD, Pharmingen).

**Q.** Which “apoptosis upon drug treatment” value does the source give for `Nc1ccn([C@@H]2O[C@H](CO)[C@@H](O)[C@@H]2O)c(=O)n1` [Ara-C, cytarabine] here?
**A.** The value was “signs of apoptosis”.

**Q.** For Arsenic trioxide [ATO], which “apoptosis upon drug treatment” value is on record?
**A.** Its value is “signs of apoptosis”.
